Measurements: US20230295142A1, “NOVEL COMPOUNDS AS HISTONE DEACETYLASE 6 INHIBITOR, AND PHARMACEUTICAL COMPOSITION COMPRISING THE SAME” (CHONG KUN DANG PHARMACEUTICAL CORP., priority 2020, published 2023)

Key:
HDAC6 human recombinant = HDAC6 human recombinant (Homo sapiens (Human), UniProt Q9UBN7); assay: HDAC6 enzyme activity inhibition (fluorimetric, in vitro); assay type: biochemical; details: samples at 0.1, 1, 10, 100 and 1000 nM; 37° C. 60 minutes
Description: (§1) A HDAC enzyme inhibitory capacity of a test material was measured by using HDAC1 Fluorimetric Drug Discovery Assay Kit (Enzolifesciences: BML-AK511) and HDAC6 human recombinant (Calbiochem: 382180). For a HDAC1 assay, samples were treated at a concentration of 100, 1000 and 10000 nM. For a HDAC6 assay, samples were treated at a concentration of 0.1, 1, 10, 100 and 1000 nM. After the above sample treatment, a reaction was continued at 37° C. for 60 minutes, treated with a developer, and subjected to reaction at 37° C. for 30 minutes, after which fluorescence intensity (Ex 390, Em 460) was measured by using FlexStatin3 (Molecular device).

HDAC1 = HDAC1 (Homo sapiens (Human), UniProt Q13547); assay: HDAC1 enzyme activity inhibition (HDAC1 Fluorimetric Drug Discovery Assay Kit); assay type: biochemical; details: samples at 100, 1000 and 10000 nM; 37° C. 60 minutes
Description: as §1

Chain of HDAC6 human recombinant (Q9UBN7 whole entry): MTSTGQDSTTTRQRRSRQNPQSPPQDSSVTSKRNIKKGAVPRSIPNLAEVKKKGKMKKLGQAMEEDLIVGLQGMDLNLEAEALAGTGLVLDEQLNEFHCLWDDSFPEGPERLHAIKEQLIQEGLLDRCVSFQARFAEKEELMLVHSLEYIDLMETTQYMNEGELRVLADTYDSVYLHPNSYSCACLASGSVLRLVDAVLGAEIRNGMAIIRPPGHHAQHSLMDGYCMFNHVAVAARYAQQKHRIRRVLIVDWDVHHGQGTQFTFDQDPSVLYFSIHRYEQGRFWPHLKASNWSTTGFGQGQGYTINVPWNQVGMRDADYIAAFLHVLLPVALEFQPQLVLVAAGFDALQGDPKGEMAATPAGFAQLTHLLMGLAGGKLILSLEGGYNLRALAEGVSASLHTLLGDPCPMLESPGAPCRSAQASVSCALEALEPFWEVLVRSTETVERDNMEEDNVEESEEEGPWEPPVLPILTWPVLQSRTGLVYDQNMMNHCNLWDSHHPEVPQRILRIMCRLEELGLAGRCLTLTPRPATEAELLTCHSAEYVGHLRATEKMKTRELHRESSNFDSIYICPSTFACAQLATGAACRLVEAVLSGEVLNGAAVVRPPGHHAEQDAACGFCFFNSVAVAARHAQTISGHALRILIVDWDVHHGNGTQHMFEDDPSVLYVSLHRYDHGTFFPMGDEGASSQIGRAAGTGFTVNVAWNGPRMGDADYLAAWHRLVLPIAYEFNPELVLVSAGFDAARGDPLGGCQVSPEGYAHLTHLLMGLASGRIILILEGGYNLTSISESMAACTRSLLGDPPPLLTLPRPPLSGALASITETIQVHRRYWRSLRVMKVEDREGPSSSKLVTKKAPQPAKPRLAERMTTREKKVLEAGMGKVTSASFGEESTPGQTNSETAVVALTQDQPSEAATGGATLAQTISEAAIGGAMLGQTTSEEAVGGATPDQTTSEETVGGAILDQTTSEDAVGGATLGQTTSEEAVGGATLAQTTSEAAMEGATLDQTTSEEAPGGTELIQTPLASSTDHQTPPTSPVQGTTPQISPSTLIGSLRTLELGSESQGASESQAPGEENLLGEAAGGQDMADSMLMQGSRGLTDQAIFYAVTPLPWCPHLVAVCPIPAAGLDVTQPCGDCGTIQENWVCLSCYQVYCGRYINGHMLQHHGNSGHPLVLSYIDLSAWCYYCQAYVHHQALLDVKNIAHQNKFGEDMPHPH
Chain of HDAC1 (Q13547 whole entry): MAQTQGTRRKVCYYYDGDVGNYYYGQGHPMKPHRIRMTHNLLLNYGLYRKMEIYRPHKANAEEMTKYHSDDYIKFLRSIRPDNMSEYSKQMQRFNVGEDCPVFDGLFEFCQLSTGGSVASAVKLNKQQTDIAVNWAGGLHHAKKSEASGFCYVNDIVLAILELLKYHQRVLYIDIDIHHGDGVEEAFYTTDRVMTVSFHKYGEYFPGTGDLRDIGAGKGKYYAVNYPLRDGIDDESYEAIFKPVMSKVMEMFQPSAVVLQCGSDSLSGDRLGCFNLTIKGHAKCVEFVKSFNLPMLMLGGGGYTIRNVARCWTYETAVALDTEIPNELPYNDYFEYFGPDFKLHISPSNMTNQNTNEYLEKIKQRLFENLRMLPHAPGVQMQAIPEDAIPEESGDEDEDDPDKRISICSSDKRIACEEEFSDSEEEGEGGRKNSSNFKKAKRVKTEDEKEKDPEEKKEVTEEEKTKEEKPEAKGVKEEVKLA

| SMILES | IC50 (HDAC6 human recombinant) | IC50 (HDAC1) |
| --- | --- | --- |
| CC1(C)C(=O)N(c2ccccc2)C(=O)N1Cc1ccc(-c2nnc(C(F)F)o2)cc1F [Compound 1, 1-(4-(5-(difluoromethyl)-1,3,4-oxadiazol-2-yl)-2-fluorobenzyl)-5,5-dimethyl-3-phenylimidazolidin-2,4-dione] | 665 nM | > 10000 nM |
| CC1(C)C(=O)N(c2ccccc2)C(=O)N1Cc1ccc(-c2nnc(C(F)(F)F)o2)cc1F [Compound 2, 1-(2-fluoro-4-(5-(trifluoromethyl)-1,3,4-oxadiazol-2-yl)benzyl)-5,5-dimethyl-3-phenylimidazolidin-2,4-dione] | 958 nM | > 10000 nM |
| O=C1CN(c2ccccc2)C(=O)N1Cc1ccc(-c2nnc(C(F)F)o2)cc1F [Compound 3, 3-(4-(5-(difluoromethyl)-1,3,4-oxadiazol-2-yl)-2-fluorobenzyl)-1-phenylimidazolidin-2,4-dione] | 219 nM | > 10000 nM |
| O=C1CN(c2ccccc2)C(=O)N1Cc1ccc(-c2nnc(C(F)F)o2)cn1 [Compound 4, 3-((5-(5-(difluoromethyl)-1,3,4-oxadiazol-2-yl)pyridin-2-yl)methyl)-1-phenylimidazolidin-2,4-dione] | 99 nM | > 10000 nM |
| CC(C)(C)OC(=O)N1CCC2(CC1)C(=O)N(Cc1ccc(-c3nnc(C(F)F)o3)cn1)C(=O)N2c1cccc(F)c1 [Compound 5, tert-butyl 3-((5-(5-(difluoromethyl)-1,3,4-oxadiazol-2-yl)pyridin-2-yl)methyl)-1-(3-fluorophenyl)-2,4-dioxo-1,3,8-triazaspiro[4.5]decan-8-carboxylate] | 206 nM | > 10000 nM |
| CN1CCC2(CC1)C(=O)N(Cc1ccc(-c3nnc(C(F)F)o3)cn1)C(=O)N2c1cccc(F)c1 [Compound 6, 3-((5-(5-(difluoromethyl)-1,3,4-oxadiazol-2-yl)pyridin-2-yl)methyl)-1-(3-fluorophenyl)-8-methyl-1,3,8-triazaspiro[4.5]decan-2,4-dione] | 104 nM | > 10000 nM |
| O=C1N(Cc2ccc(-c3nnc(C(F)F)o3)cn2)C(=O)C2(CCN(C3COC3)CC2)N1c1cccc(F)c1 [Compound 7, 3-((5-(5-(difluoromethyl)-1,3,4-oxadiazol-2-yl)pyridin-2-yl)methyl)-1-(3-fluorophenyl)-8-(oxetan-3-yl)-1,3,8-triazaspiro[4.5]decan-2,4-dione] | 100 nM | > 10000 nM |
| CC(C)N1CCC2(CC1)C(=O)N(Cc1ccc(-c3nnc(C(F)F)o3)cn1)C(=O)N2c1cccc(F)c1 [Compound 8, 3-((5-(5-(difluoromethyl)-1,3,4-oxadiazol-2-yl)pyridin-2-yl)methyl)-1-(3-fluorophenyl)-8-isopropyl-1,3,8-triazaspiro[4.5]decan-2,4-dione] | 99 nM | > 10000 nM |
| O=C1CN(c2ccccc2)C(=O)N1Cc1ncc(-c2nnc(C(F)F)o2)cn1 [Compound 9, 3-((5-(5-(difluoromethyl)-1,3,4-oxadiazol-2-yl)pyrimidin-2-yl)methyl)-1-phenylimidazolidin-2,4-dione] | 147 nM | > 10000 nM |
| CC1(C)C(=O)N(Cc2ccc(-c3nnc(C(F)F)o3)cn2)C(=O)N1c1cccc(F)c1 [Compound 10, 3-((5-(5-(difluoromethyl)-1,3,4-oxadiazol-2-yl)pyridin-2-yl)methyl)-1-(3-fluorophenyl)-5,5-dimethylimidazolidin-2,4-dione] | 53 nM | > 10000 nM |
| CC1(C)C(=O)N(Cc2ccc(-c3nnc(C(F)F)o3)cn2)C(=O)N1c1cccc(Br)c1 [Compound 11, 1-(3-bromophenyl)-3-((5-(5-(difluoromethyl)-1,3,4-oxadiazol-2-yl)pyridin-2-yl)methyl)-5,5-dimethylimidazolidin-2,4-dione] | 56 nM | > 10000 nM |
| CC1(C)C(=O)N(Cc2ccc(-c3nnc(C(F)F)o3)cn2)C(=O)N1c1ccc(F)cc1 [Compound 12, 3-((5-(5-(difluoromethyl)-1,3,4-oxadiazol-2-yl)pyridin-2-yl)methyl)-1-(4-fluorophenyl)-5,5-dimethylimidazolidin-2,4-dione] | 60 nM | > 10000 nM |
| CC1(C)C(=O)N(Cc2ccc(-c3nnc(C(F)F)o3)cn2)C(=O)N1c1c(F)cccc1F [Compound 13, 3-((5-(5-(difluoromethyl)-1,3,4-oxadiazol-2-yl)pyridin-2-yl)methyl)-1-(2,6-difluorophenyl)-5,5-dimethylimidazolidin-2,4-dione] | 27 nM | > 10000 nM |
| CC1(C)C(=O)N(Cc2ccc(-c3nnc(C(F)F)o3)cn2)C(=O)N1c1ccc(F)cc1F [Compound 14, 3-((5-(5-(difluoromethyl)-1,3,4-oxadiazol-2-yl)pyridin-2-yl)methyl)-1-(2,4-difluorophenyl)-5,5-dimethylimidazolidin-2,4-dione] | 56 nM | > 10000 nM |
| CC1(C)C(=O)N(Cc2ccc(-c3nnc(C(F)F)o3)cn2)C(=O)N1c1cccc(F)c1F [Compound 15, 3-((5-(5-(difluoromethyl)-1,3,4-oxadiazol-2-yl)pyridin-2-yl)methyl)-1-(2,3-difluorophenyl)-5,5-dimethylimidazolidin-2,4-dione] | 43 nM | > 10000 nM |
| CC1(C)C(=O)N(Cc2ccc(-c3nnc(C(F)F)o3)cn2)C(=O)N1c1ccc(F)c(F)c1 [Compound 16, 3-((5-(5-(difluoromethyl)-1,3,4-oxadiazol-2-yl)pyridin-2-yl)methyl)-1-(3,4-difluorophenyl)-5,5-dimethylimidazolidin-2,4-dione] | 142 nM | > 10000 nM |
| CC1(C)C(=O)N(Cc2ccc(-c3nnc(C(F)F)o3)cn2)C(=O)N1c1cc(F)cc(F)c1 [Compound 17, 3-((5-(5-(difluoromethyl)-1,3,4-oxadiazol-2-yl)pyridin-2-yl)methyl)-1-(3,5-difluorophenyl)-5,5-dimethylimidazolidin-2,4-dione] | 69 nM | > 10000 nM |
| CC1(C)C(=O)N(Cc2ccc(-c3nnc(C(F)F)o3)cn2)C(=O)N1c1ccccc1 [Compound 18, 3-((5-(5-(difluoromethyl)-1,3,4-oxadiazol-2-yl)pyridin-2-yl)methyl)-5,5-dimethyl-1-phenylimidazolidin-2,4-dione] | 79 nM | > 10000 nM |
| CN1CC=C(c2cccc(N3C(=O)N(Cc4ccc(-c5nnc(C(F)F)o5)cn4)C(=O)C3(C)C)c2)CC1 [Compound 19, 3-((5-(5-(difluoromethyl)-1,3,4-oxadiazol-2-yl)pyridin-2-yl)methyl)-5,5-dimethyl-1-(3-(1-methyl-1,2,3,6-tetrahydropyridin-4-yl)phenyl)imidazolidin-2,4-dione] | 85 nM | > 10000 nM |
| CN1CCC(c2cccc(N3C(=O)N(Cc4ccc(-c5nnc(C(F)F)o5)cn4)C(=O)C3(C)C)c2)CC1 [Compound 20, 3-((5-(5-(difluoromethyl)-1,3,4-oxadiazol-2-yl)pyridin-2-yl)methyl)-5,5-dimethyl-1-(3-(1-methylpiperidin-4-yl)phenyl)imidazolidin-2,4-dione] | 90 nM | > 10000 nM |
| CN1CC2(C1)C(=O)N(Cc1ccc(-c3nnc(C(F)F)o3)cn1)C(=O)N2c1ccccc1 [Compound 21, 7-((5-(5-(difluoromethyl)-1,3,4-oxadiazol-2-yl)pyridin-2-yl)methyl)-2-methyl-5-phenyl-2,5,7-triazaspiro[3.4]octan-6,8-dione] | 241 nM | > 10000 nM |
| CC(C)N1CC2(C1)C(=O)N(Cc1ccc(-c3nnc(C(F)F)o3)cn1)C(=O)N2c1ccccc1 [Compound 22, 7-((5-(5-(difluoromethyl)-1,3,4-oxadiazol-2-yl)pyridin-2-yl)methyl)-2-isopropyl-5-phenyl-2,5,7-triazaspiro[3.4]octan-6,8-dione] | 191 nM | > 10000 nM |
| CC(=O)N1CC2(C1)C(=O)N(Cc1ccc(-c3nnc(C(F)F)o3)cn1)C(=O)N2c1ccccc1 [Compound 23, 2-acetyl-7-((5-(5-(difluoromethyl)-1,3,4-oxadiazol-2-yl)pyridin-2-yl)methyl)-5-phenyl-2,5,7-triazaspiro[3.4]octan-6,8-dione] | 369 nM | > 10000 nM |
| O=C1N(Cc2ccc(-c3nnc(C(F)F)o3)cn2)C(=O)C2(CCC2)N1c1ccccc1 [Compound 24, 7-((5-(5-(difluoromethyl)-1,3,4-oxadiazol-2-yl)pyridin-2-yl)methyl)-5-phenyl-5,7-diazaspiro[3.4]octan-6,8-dione] | 56 nM | > 10000 nM |
| CC1(C)C(=O)N(Cc2ccc(-c3nnc(C(F)F)o3)cn2)C(=O)N1c1ccc(-c2ccoc2)cc1 [Compound 25, 3-((5-(5-(difluoromethyl)-1,3,4-oxadiazol-2-yl)pyridin-2-yl)methyl)-1-(4-(furan-3-yl)phenyl)-5,5-dimethylimidazolidin-2,4-dione] | 106 nM | > 10000 nM |
| CC1(C)C(=O)N(Cc2ccc(-c3nnc(C(F)F)o3)cn2)C(=O)N1c1ccc(-c2ccncc2)cc1 [Compound 26, 3-((5-(5-(difluoromethyl)-1,3,4-oxadiazol-2-yl)pyridin-2-yl)methyl)-5,5-dimethyl-1-(4-(pyridin-4-yl)phenyl)imidazolidin-2,4-dione] | 48 nM | > 10000 nM |
| CC1(C)C(=O)N(Cc2ccc(-c3nnc(C(F)F)o3)cn2)C(=O)N1c1ccc(-c2cccnc2)cc1 [Compound 27, 3-((5-(5-(difluoromethyl)-1,3,4-oxadiazol-2-yl)pyridin-2-yl)methyl)-5,5-dimethyl-1-(4-(pyridin-3-yl)phenyl)imidazolidin-2,4-dione] | 55 nM | > 10000 nM |
